From patent publication US9034891B2, “Bicyclic heterocyclic spiro compounds” (ISRAEL INSTITUTE FOR BIOLOGICAL RESEARCH, priority 2009, dated 2015) come the findings set out here.

SMILES strings stand for the structures.

One test deals with T1, M1 mAChR (Homo sapiens, UniProt P11229).
T1 sequence (P11229 1-460): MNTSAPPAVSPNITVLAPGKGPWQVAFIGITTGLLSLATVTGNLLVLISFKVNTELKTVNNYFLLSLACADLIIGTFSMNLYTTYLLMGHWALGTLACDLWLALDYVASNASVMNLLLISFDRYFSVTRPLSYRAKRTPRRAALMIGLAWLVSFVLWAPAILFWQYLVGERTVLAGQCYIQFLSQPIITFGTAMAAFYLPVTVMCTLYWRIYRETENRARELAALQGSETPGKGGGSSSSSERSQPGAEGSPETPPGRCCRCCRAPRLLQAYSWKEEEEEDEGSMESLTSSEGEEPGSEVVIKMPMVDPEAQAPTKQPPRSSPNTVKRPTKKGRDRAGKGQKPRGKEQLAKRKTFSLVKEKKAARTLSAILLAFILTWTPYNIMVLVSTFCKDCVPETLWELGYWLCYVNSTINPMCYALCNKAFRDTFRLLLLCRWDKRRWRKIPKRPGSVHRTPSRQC
In words: Intracellular Ca2+ mobilization (Fluo-4 NW) in cells stably transfected with M1 mAChR. Conditions: 100 μM; mobilization of intracellular Ca ions. Further details: expressed in transfected cells. The class given is cell-based. From the text:
On the day of experiment, cells were fully confluent.
To evaluate selectivity for a subtype of mAChR, in particular the M1 mAChR vs. M3 and MS mAChR, the assays were calibrated using ligands that have a combined activity, e.g. M1 agonistic and M3 antagonistic or M1 agonistic and MS antagonistic profiles, respectively. This can eliminate effects due to different receptor reserves in cell-based assays.
(In general: Calcium flux is commonly read through the fluorescence of an indicator in the cells.)

In the next test the test system is Wistar rats. In words: Passive avoidance, trihexyphenidyl-induced memory impairment in rats. The class given is in vivo, rat. The source says: Trihexyphenidyl is a selective M1 muscarinic antagonist that crosses the blood brain barrier and induces memory and learning impairments (Bymaster et al., J Pharmacol Exp. Ther. 267: 16-24, 1993; Roldan et al., Neurosci. Lett. 230: 93-96, 1997; Kimura et al., Brain Res. 834: 6-12, 1999). […] Naive Wistar rats were used in the experiments below. The passive avoidance (PA) task consists of a training (acquisition) phase and a retention phase. In the training procedure each rat was individually placed in the small illuminated compartment and after 60 s. of familiarization/adaptation, the door to the large compartment was opened and the latency to enter was measured (Initial Latency) Immediately following entry into the dark compartment, the door was closed and inescapable foot shock (0.6 mA for 3 s) was delivered through the grid floor. […] After the acquisition trial the rat was returned to its home cage. Retention of the passive avoidance task was measured 24 h later, by again placing the rat in the light compartment and after a 60 s adaptation interval, the door was opened and the latency to re-enter the dark compartment was measured. […] Two separate experiments were conducted. […] In both experiments the rats were divided into 2 groups. One main group was treated with trihexyphenidyl (5 mg/kg, s.c) and the second main group was treated with vehicle (DDW-1 ml/kg, s.c.), 30 min before the shock.
In a further extension of these studies, retention of the passive avoidance task was measured 72 h later, by again placing the rat in the light compartment and after a 60 s adaptation interval, the door was opened and the latency to re-enter the dark compartment was measured. A cutoff point of 600 s was used for retention latency. […] Rats were divided into 2 groups. One group (N=30) was treated with trihexyphenidyl (5 mg/kg, s.c) and the second group (N=29) was treated with vehicle (DDW-1 ml/kg, s.c.), 30 min before the shock.

`C[C@@H]1SC2(CCN(C)CC2)CN1C(=O)CCc1c[nH]c2ccccc12` (single isomer, unassigned) [AF710B]: the “M1 agonist at 100 μM vs. carbachol (full muscarinic agonist, 100%)” value at M1 mAChR is recorded as 66%. Further, the retention latency with Wistar rats (1 μg/kg po, 72 h, cutoff 600 s, trihexyphenidyl+DDW 98.6±28.0, control 568.7±23.7) came to 276.3 ± 60.7 s; in the test on Wistar rats (10 μg/kg po, 72 h, cutoff 600 s) it was 272.7 ± 51.6 s; in the test with Wistar rats (AF710B 10 μg/kg with NE-100 1 mg/kg), 185.4 ± 44.0 s; in the test with Wistar rats (Experiment 1, 10 μg/kg po, 24 h, cutoff 300 s, trihexyphenidyl+DDW 54.22±14.60, control 242.00±30.60) it was 252.50 ± 32.30 s; in the test on Wistar rats (Experiment 1, 30 μg/kg po, 24 h, cutoff 300 s), 178.82 ± 32.70 s; in the test on Wistar rats (Experiment 1, 100 μg/kg po, 24 h, not different from trihexyphenidyl+DDW), 122.00 ± 34.60 s. Besides, the retention latency was determined as 215.6 ± 36.00 s in the test with Wistar rats (Experiment 2, 1 μg/kg po, 24 h, trihexyphenidyl+DDW 63.89±18.79, control 274.70±20.8); 219.80 ± 36.00 s with Wistar rats (Experiment 2, 3 μg/kg po, 24 h); 361.7 ± 67.1 s with Wistar rats (NE-100 experiment, AF710B 10 μg/kg, trihexyphenidyl+DDW 122.0±29.2, control 525.7±51.0). Moreover, in the test with Wistar rats (po, trihexyphenidyl-induced passive avoidance impairment), the “cognitive enhancer dose range” value lay within 1 to 30 µg/kg.
